Data reported in ChEMBL document CHEMBL4699602, “Stapled and Xenopus Glucagon-Like Peptide 1 (GLP-1)-Based Dual GLP-1/Gastrin Receptor Agonists with Improved Metabolic Benefits in Rodent Models of Obesity and Diabetes” (J Med Chem, 2020).
Activity calls are given as the source filed them. The rule behind the calls is not given here. *1 amine or outer side, *2 acyl side, *3 side chain or, on linkers, in order; H or OH if unused. Where a SMILES comes first, the peptide text is derived from it. Bridges are numbered along the chain shown (N, C = ends). [ ]: non-standard residue; d: D form. X3 = O=C(O)CCCCCCCCCCCCCCCCC(=O)NC(CCC(=O)NCCOCCOCC(=O)NCCCCCCNC(=O)C(CCCCNC(=O)CCN1C(=O)CC([*:1])C1=O)NC(=O)CCN1C(=O)CC([*:2])C1=O)C(=O)O; sY = N[C@@H](Cc1ccc(OS(=O)(=O)O)cc1)C(=O)O; AEEA = NCCOCCOCC(=O)O; Aib = CC(C)(N)C(=O)O

Tests used:
[1] = target: T1, Gastrin/cholecystokinin type B receptor (Homo sapiens, UniProt P32239); experiment: Agonist activity at human CCK-2R expressed in HEK293 cells assessed as stimulation of ERK phosphorylation incubated for 5 mins; assay type: cell-based
T1 sequence (P32239 whole entry): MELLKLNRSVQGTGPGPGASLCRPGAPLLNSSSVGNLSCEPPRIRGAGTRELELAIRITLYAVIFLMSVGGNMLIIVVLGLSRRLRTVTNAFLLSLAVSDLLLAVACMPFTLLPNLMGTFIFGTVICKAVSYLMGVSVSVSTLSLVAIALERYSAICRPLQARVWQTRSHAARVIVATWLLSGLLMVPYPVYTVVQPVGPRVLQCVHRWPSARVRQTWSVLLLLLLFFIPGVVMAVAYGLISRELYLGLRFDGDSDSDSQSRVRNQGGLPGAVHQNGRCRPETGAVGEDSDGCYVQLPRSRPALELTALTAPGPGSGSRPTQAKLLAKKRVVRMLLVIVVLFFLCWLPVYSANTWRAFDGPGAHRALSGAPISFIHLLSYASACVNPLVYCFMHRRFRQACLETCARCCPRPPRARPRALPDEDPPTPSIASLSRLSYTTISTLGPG

[2] = target: Glucagon-like peptide 1 receptor (Homo sapiens, UniProt P43220); experiment: Agonist activity at human GLP-1R expressed in HEK293 cells assessed as stimulation of cAMP accumulation incubated for 20 mins; assay type: functional, cell-based
[3] = target: T2, Cholecystokinin receptor type A (Homo sapiens, UniProt P32238); experiment: Agonist activity at human CCK-1R expressed in HEK293 cells assessed as stimulation of ERK phosphorylation incubated for 5 mins; assay type: cell-based
T2 sequence (P32238 whole entry): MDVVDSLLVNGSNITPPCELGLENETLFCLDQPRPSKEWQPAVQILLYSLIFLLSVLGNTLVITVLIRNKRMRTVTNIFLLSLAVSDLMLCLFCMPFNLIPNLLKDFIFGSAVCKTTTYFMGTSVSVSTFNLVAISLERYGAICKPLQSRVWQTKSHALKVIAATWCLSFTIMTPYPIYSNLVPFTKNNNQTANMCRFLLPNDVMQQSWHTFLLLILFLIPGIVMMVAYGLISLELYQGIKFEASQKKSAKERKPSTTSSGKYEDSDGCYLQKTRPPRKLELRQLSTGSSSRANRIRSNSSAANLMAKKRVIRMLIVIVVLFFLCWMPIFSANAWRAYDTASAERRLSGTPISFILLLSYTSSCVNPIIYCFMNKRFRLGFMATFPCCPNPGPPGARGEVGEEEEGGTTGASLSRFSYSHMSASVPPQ

[4] = system: Mus musculus; experiment: Hypoglycemic activity in ICR mouse assessed as decrease in blood glucose concentration at 25 nmol/kg, ip dosed 15 mins before test and measured up to 120 mins by OGTT method; assay type: functional, organism-based

Chain of Glucagon-like peptide 1 receptor (P43220 whole entry): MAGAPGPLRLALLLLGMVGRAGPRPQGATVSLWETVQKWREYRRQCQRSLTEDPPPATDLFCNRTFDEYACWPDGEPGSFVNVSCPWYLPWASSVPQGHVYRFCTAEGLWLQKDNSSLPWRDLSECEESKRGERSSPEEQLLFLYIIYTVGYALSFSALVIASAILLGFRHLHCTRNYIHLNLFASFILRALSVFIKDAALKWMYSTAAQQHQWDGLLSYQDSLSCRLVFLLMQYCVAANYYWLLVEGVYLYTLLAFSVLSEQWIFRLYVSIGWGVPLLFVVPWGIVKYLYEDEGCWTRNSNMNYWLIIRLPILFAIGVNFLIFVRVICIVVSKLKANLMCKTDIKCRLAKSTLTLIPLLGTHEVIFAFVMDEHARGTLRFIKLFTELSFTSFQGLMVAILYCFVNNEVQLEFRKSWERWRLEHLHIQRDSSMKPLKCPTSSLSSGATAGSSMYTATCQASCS

Compound	EC50 [1] [nM]	EC50 [2] [nM]	EC50 [3] [nM]	Activity [4]
CC[C@H](C)[C@H](NC(=O)[C@H](CC(C)C)NC(=O)[C@H](Cc1c[nH]c2ccccc12)NC(=O)[C@H](CCC(=O)O)NC(=O)[C@@H](NC(=O)[C@H](Cc1ccccc1)NC(=O)[C@@H]1CSC2CC(=O)N(CCC(=O)NC(C(=O)NCCCCCCNC(=O)COCCOCCNC(=O)CCC(NC(=O)CCCCCCCCCCCCCCCCC(=O)O)C(=O)O)CCCCNC(=O)CCN3C(=O)CC(SC[C@H](NC(=O)[C@H](Cc4ccc(O)cc4)NC(=O)[C@H](CCC(=O)O)NC(=O)[C@@H](NC(=O)[C@@H](NC(=O)[C@H](CC(=O)O)NC(=O)[C@H](CC(N)=O)NC(=O)[C@@H](NC(=O)[C@H](Cc4ccc(O)cc4)NC(=O)[C@@H](NC(=O)CNC(=O)[C@H](CCC(=O)O)NC(=O)C(C)(C)NC(=O)[C@@H](N)Cc4c[nH]cn4)[C@@H](C)O)[C@@H](C)O)C(C)C)[C@@H](C)O)C(=O)N[C@@H](CCC(=O)O)C(=O)N[C@@H](CCC(=O)O)C(=O)N[C@@H](CCC(=O)O)C(=O)N[C@@H](C)C(=O)N[C@@H](C)C(=O)N[C@@H](CCCCN)C(=O)N1)C3=O)C2=O)[C@@H](C)CC)C(=O)N[C@@H](CCCCN)C(=O)NCC(=O)N[C@@H](CCCCN)C(=O)NCCOCCOCC(=O)NCCOCCOCC(=O)N[C@@H](Cc1ccc(O)cc1)C(=O)NCC(=O)N[C@@H](Cc1c[nH]c2ccccc12)C(=O)N[C@@H](CC(C)C)C(=O)N[C@@H](CC(=O)O)C(=O)N[C@@H](Cc1ccccc1)C(N)=O (some centres undefined) (H-H[Aib]EGTYTNDVTEYCEEEAAKCFIEWLIKGK[AEEA][AEEA]YGWLDF-NH2; linker 14-21 via X3)	15.2	0.055	> 1000	–
CC[C@H](C)[C@@H]1NC(=O)[C@H](CC(C)C)NC(=O)[C@H](Cc2c[nH]c3ccccc23)NC(=O)[C@H](CCC(=O)O)NC(=O)[C@H]([C@@H](C)CC)NC(=O)[C@H](Cc2ccccc2)NC(=O)[C@@H](NC(=O)[C@H](CCCCN)NC(=O)[C@H](C)NC(=O)[C@H](C)NC(=O)[C@H](CCC(=O)O)NC(=O)[C@H](CCC(=O)O)NC(=O)[C@H](CCC(=O)O)NC(=O)[C@H](CC(C)C)NC(=O)[C@H](Cc2ccc(O)cc2)NC(=O)[C@H](CCC(=O)O)NC(=O)[C@@H](NC(=O)[C@@H](NC(=O)[C@H](CC(=O)O)NC(=O)[C@H](CC(N)=O)NC(=O)[C@@H](NC(=O)[C@H](Cc2ccc(O)cc2)NC(=O)[C@@H](NC(=O)CNC(=O)[C@H](CCC(=O)O)NC(=O)C(C)(C)NC(=O)[C@@H](N)Cc2c[nH]cn2)[C@@H](C)O)[C@@H](C)O)C(C)C)[C@@H](C)O)CSC2CC(=O)N(CCC(=O)NCCCCC(C(=O)NCCCCCCNC(=O)COCCOCCNC(=O)CCC(NC(=O)CCCCCCCCCCCCCCCCC(=O)O)C(=O)O)NC(=O)CCN3C(=O)CC(SC[C@@H](C(=O)NCC(=O)N[C@@H](CCCCN)C(=O)NCCOCCOCC(=O)NCCOCCOCC(=O)N[C@@H](Cc4ccc(O)cc4)C(=O)NCC(=O)N[C@@H](Cc4c[nH]c5ccccc45)C(=O)N[C@@H](CC(C)C)C(=O)N[C@@H](CC(=O)O)C(=O)N[C@@H](Cc4ccccc4)C(N)=O)NC1=O)C3=O)C2=O (some centres undefined) (H-H[Aib]EGTYTNDVTEYLEEEAAKCFIEWLICGK[AEEA][AEEA]YGWLDF-NH2; linker 21-28 via X3)	17.5	0.061	> 1000	–
CC[C@H](C)[C@H](NC(=O)[C@H](CC(C)C)NC(=O)[C@H](Cc1c[nH]c2ccccc12)NC(=O)[C@H](CCC(=O)O)NC(=O)[C@@H](NC(=O)[C@H](Cc1ccccc1)NC(=O)[C@H](CS)NC(=O)[C@H](CCCCN)NC(=O)[C@H](C)NC(=O)[C@H](C)NC(=O)[C@H](CCC(=O)O)NC(=O)[C@H](CCC(=O)O)NC(=O)[C@H](CCC(=O)O)NC(=O)[C@H](CC(C)C)NC(=O)[C@H](Cc1ccc(O)cc1)NC(=O)[C@H](CCC(=O)O)NC(=O)[C@@H](NC(=O)[C@@H](NC(=O)[C@H](CC(=O)O)NC(=O)[C@H](CC(N)=O)NC(=O)[C@@H](NC(=O)[C@H](Cc1ccc(O)cc1)NC(=O)[C@@H](NC(=O)CNC(=O)[C@H](CCC(=O)O)NC(=O)C(C)(C)NC(=O)[C@@H](N)Cc1c[nH]cn1)[C@@H](C)O)[C@@H](C)O)C(C)C)[C@@H](C)O)[C@@H](C)CC)C(=O)N[C@@H](CS)C(=O)NCC(=O)N[C@@H](CCCCN)C(=O)N1CCC[C@H]1C(=O)N[C@@H](CO)C(=O)N[C@@H](CO)C(=O)NCC(=O)N[C@@H](C)C(=O)N1CCC[C@H]1C(=O)N1CCC[C@H]1C(=O)N1CCC[C@H]1C(=O)N[C@@H](CO)C(N)=O (HELM PEPTIDE1{H.[Aib].E.G.T.Y.T.N.D.V.T.E.Y.L.E.E.E.A.A.K.C.F.I.E.W.L.I.C.G.K.P.S.S.G.A.P.P.P.S.[am]}$$$$V2.0)	–	0.052	–	Active
CC[C@H](C)[C@H](NC(=O)[C@H](CC(C)C)NC(=O)[C@H](Cc1c[nH]c2ccccc12)NC(=O)[C@H](CCC(=O)O)NC(=O)[C@@H](NC(=O)[C@H](Cc1ccccc1)NC(=O)[C@H](CS)NC(=O)[C@H](CCCCN)NC(=O)[C@H](C)NC(=O)[C@H](C)NC(=O)[C@H](CCC(=O)O)NC(=O)[C@H](CCC(=O)O)NC(=O)[C@H](CCC(=O)O)NC(=O)[C@H](CC(C)C)NC(=O)[C@H](Cc1ccc(O)cc1)NC(=O)[C@H](CCC(=O)O)NC(=O)[C@@H](NC(=O)[C@@H](NC(=O)[C@H](CC(=O)O)NC(=O)[C@H](CC(N)=O)NC(=O)[C@@H](NC(=O)[C@H](Cc1ccc(O)cc1)NC(=O)[C@@H](NC(=O)CNC(=O)[C@H](CCC(=O)O)NC(=O)C(C)(C)NC(=O)[C@@H](N)Cc1c[nH]cn1)[C@@H](C)O)[C@@H](C)O)C(C)C)[C@@H](C)O)[C@@H](C)CC)C(=O)N[C@@H](CS)C(=O)NCC(=O)N[C@@H](CCCCN)C(N)=O (HELM PEPTIDE1{H.[Aib].E.G.T.Y.T.N.D.V.T.E.Y.L.E.E.E.A.A.K.C.F.I.E.W.L.I.C.G.K.[am]}$$$$V2.0)	–	0.083	–	Active
H-HGEGTYTNDVTEYLEEEAAKEFIEWLIKGK-NH2	–	0.048	–	Active
H-HGEGTYTNDVTEYLEEEAAKEFIEWLIKGKPSSGAPPPS-NH2	> 1000	0.034	> 1000	Active
H-HGEGTYTNDVTEYLEEEAAKEFIEWLIKGKPSSGAPPSKKKKKK-NH2	–	0.024	–	Active
H-H[Aib]EGTYTNDVTEYCEEEAAKCFIEWLIKGKPSSGAPPPS[AEEA][AEEA]YGWLDF-NH2 (cysteines drawn unpaired)	8.3	0.04	> 1000	–
H-H[Aib]EGTYTNDVTEYCEEEAAKCFIEWLIKGKPSSGAPPPS[AEEA][AEEA][sY]GWMDF-NH2 (cysteines drawn unpaired)	7.6	0.038	> 1000	–
H-H[Aib]EGTYTNDVTEYCEEEAAKCFIEWLIKGKPSSGAPPSKKKKKK-NH2 (cysteines drawn unpaired)	–	0.028	–	Active
H-H[Aib]EGTYTNDVTEYLEEEAAKCFIEWLICGKPSSGAPPPS[AEEA][AEEA]YGWLDF-NH2 (cysteines drawn unpaired)	9.4	0.048	> 1000	–
H-H[Aib]EGTYTNDVTEYLEEEAAKCFIEWLICGKPSSGAPPPS[AEEA][AEEA][sY]GWMDF-NH2 (cysteines drawn unpaired)	8.2	0.059	> 1000	–
H-H[Aib]EGTYTNDVTEYLEEEAAKCFIEWLICGKPSSGAPPSKKKKKK-NH2 (cysteines drawn unpaired)	–	0.036	–	Active
